Patent US20190092769A1, “[…] AND T[…] ACTING UPON THE […] AND CENTRAL NERVOUS SYSTEMS” (CENTRO DE INVESTIGACION Y […] LOS MEDICAMENTOS (CIDEM), priority 2009, published 2019)

Tests used:
[1] = target: T1, mitochondrial uniporter calcium excipient (Homo sapiens, UniProt Q8NE86); assay: Mitochondrial calcium capture in isolated mitochondria (Calcium Green 5N); assay type: biochemical
T1 construct: This experiment is also carried out with isolated mitochondria (0.5 mg/ml); from tissue
T1 sequence (Q8NE86 51-351): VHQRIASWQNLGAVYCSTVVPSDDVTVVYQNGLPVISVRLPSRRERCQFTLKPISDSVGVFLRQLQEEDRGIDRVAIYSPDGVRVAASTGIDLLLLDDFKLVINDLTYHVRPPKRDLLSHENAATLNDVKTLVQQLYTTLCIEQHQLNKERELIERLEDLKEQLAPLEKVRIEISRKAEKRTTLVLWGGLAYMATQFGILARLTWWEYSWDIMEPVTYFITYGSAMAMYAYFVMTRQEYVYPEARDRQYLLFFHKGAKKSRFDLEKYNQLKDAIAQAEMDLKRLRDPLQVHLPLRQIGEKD
T1 sequence (Q9H4I9 48-107 partner limits assumed): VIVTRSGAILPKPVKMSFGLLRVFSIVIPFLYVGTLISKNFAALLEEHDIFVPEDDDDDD
Procedure: This experiment is also carried out with isolated mitochondria (0.5 mg/ml) energized with succinate 5 mM+rotenone 2.5 μM and the presence of Calcium Green 5N fluorescent marker which increases fluorescence in the presence of calcium. […] The excitation/emission wave lengths used for Calcium Green 5N are 506/531 nm, respectively.

[2] = target: T2, mitochondrial FOF1 ATPase (complex V) (Rattus norvegicus, UniProt P10719+P15999); assay: ATP hydrolysis by FOF1 ATPase in submitochondrial particles; assay type: biochemical, Wistar rats
T2 construct: These particles are obtained from isolated mitochondria from Wistar rats' liver; from tissue; host or cells: submitochondrial particles from Wistar rat liver mitochondria (sonicated)
Source text: These particles are obtained from isolated mitochondria from Wistar rats' liver, submitted to an ultrasound process to break their membranes. Thus, so-called mitoplasts or submitchondrial particles are formed with inverted portions of the inner membrane that preserve the ATP hydrolytic activity of the FOF1 ATPase in the presence of external ATP.

[3] = tested on: cerebellar granules damaged with glutamate; assay: Cytoprotective effect in cerebellar granules exposed to glutamate; assay type: cell-based
Source text: For neuro-protective in vitro evaluation, we used PC12 cell cultures exposed to damage from glutamate and hydrogen peroxide, as well as cerebellar granules damaged with glutamate.
Diazepam (DZP), derivative of commercial 1,4-benzodiazepine.

[4] = tested on: mitochondrial permeability transition (MPT); assay: Mitochondrial permeability transition in isolated mitochondria (absorbance decrease at 540 nm); assay type: biochemical; details: inducers Ca2+ 50 μM and phosphate (Pi)
Source text: Mitochondrial permeability transition can be estimated by absorbance decrease of a mitochondrial suspension at 540 nm.

[5] = tested on: mitochondrial membrane potential; assay: Dissipation of mitochondrial membrane potential (safranine O fluorescence); assay type: biochemical; details: Ca2+ 50 μM and phosphate (Pi) 2 mM
Procedure: This membrane potential can be fluorimetrically estimated by using safranine O. This marker is captured in the suspension by energized mitochondria (in the presence of substrates of the electronic transportation chain, such as succinate) provoking a fluorescence decrease. When the MPT process takes place, safranine is again released to the environment, thus increasing, fluorescence. […] In a dosage dependent manner, JM-20 inhibits potential loss, being the maximum inhibitory level at 15 μM (orange line).
Safranine (10 μM) is captured by energized mitochondria (succinate 5 mM rotenone 2.5 μM). In the presence of MPT inducers such as Ca^2+ and Pi, an immediate loss of mitochondrial membrane potential takes place (black line) that is prevented by the classic MPT inhibitor, CsA (red line) and by JM-20 (green, blue and orange lines) in a dosage dependent manner. The excitation/emission wave length used for safranine are 495/586 nm, respectively. A mitoprotective behavior similar to the one reported in the previous Table was found in the other molecules evaluated.

## CN1C(=O)CN=C(c2ccccc2)c2cc(Cl)ccc21 [Diazepam, reference compound]
[1]; 20 μM, isolated mitochondria 0.5 mg/ml, 20 μM Ca2+
  inhibition of calcium captation by the organelle: neither nifedipine (Nif 20 μM_light blue line) nor diazepam (DZP 20 μM), or the combination of both (Nif+DZP 1.0 μM—pink line) succeeded in inhibiting
[2]
  inhibition of the hydrolytic activity of the mitochondrial enzyme (in words): Neither Nifedipine: nor Diazepam inhibited

## N.N.N.N.N.N.N.N.N.N.N.N.N.N.[Cl-].[Cl-].[Cl-].[Cl-].[Cl-].[Cl-].[O-2].[O-2].[Ru+3].[Ru+3].[Ru+4] [Ruthenium-red, reference compound]
[1]; 1 μM, isolated mitochondria 0.5 mg/ml, 20 μM Ca2+
  inhibition of calcium captation by the organelle: calcium captation does not occur

## 4-(2′-Nitrophenyl)-3-Carbonylalcohoxi-2-Methyl-1, 4-Dihydropyrido (2,3-b-5,6-e)-1,4-Benzodiazepine [JM-20]
[1]; 10 μM, isolated mitochondria 0.5 mg/ml, 20 μM Ca2+
  inhibition of calcium mitochondrial uptake: significantly inhibits
[1]; FIG. 25
  inhibition of the mitochondrial calcium transmitter compared with Nifedipine: more powerful in inhibiting the transmitter than other dihydropyridines (Nif)
[3]
  cytoprotective effect at concentrations lower than that of Nifedipine and Diazepam independently: 100 times
[2]; submitochondrial particles from Wistar rats' liver mitochondria, read-out: mean inhibitory concentration (IC50) of ATP hydrolysis
  IC50: 10.2 µM
[4]
  MIC: concentration at which total inhibition of mitochondrial permeability transition took place: 15 µM
[5]
  maximum inhibitory level for loss of mitochondrial membrane potential: 15 µM
